# Data as given in patent US20250228954A1, “Designing Antisense Oligonucleotide Delivery Peptides by Interpretable Machine Learning” (Sarepta Therapeutics, Inc., priority 2020, published 2025).
# Assays:
# HeLa 654 cells = assay: HeLa-654 eGFP assay (corrective splicing / exon skipping by PMO IVS2-654); format: cell-based, human
# [1] = Chromogenic LAL endotoxin assay; settings: lot used for animal studies, acetate salt, 0.5 mg in 1 mL PBS
# Procedure: The amount of endotoxin in PMO-P7 was measured. A chromogenic LAL (Limulus Amebocyte Lysate) assay for the detection and quantification of bacterial endotoxins was used. LAL is an extract of blood cells (amoebocytes) from the Atlantic horseshoe crab. This assay is based on the reaction of LAL with bacterial endotoxin lipopolysaccharide (LPS), which is a membrane component of gram-negative bacteria. In this method the LAL reagent is mixed with a chromogenic reagent (a peptide connected to p-nitroaniline, a yellow colorant) to produce a synthetic chromogenic substrate. The sample was added to this chromogenic substrate prior incubation. The presence of endotoxins in the sample produces a series of enzymatic reactions in the LAL reagent resulting in the breaking of the peptide bonds releasing p-nitroaniline molecules and therefore producing a yellow color. The concentration of endotoxin is quantitated by measuring the absorbance at 405-410 nm. Using the lot of PMO-P7 for animal studies, PMO-P7 solution was prepared using 0.5 mg of PMO-P^7 as acetate salt dissolved in 1 mL of PBS (1X). […] The reader mixed the sample with the LAL (Limulus Amebocyte Lysate) reagent. […] After mixing, the optical density of the wells was measured and analyzed against an internal archived standard curve. The reading was 0.0471 EU/mg (EU: endotoxin units). […]
# EGFP-654 mice = assay: EGFP protein level in tissues of EGFP-654 mice after single i.v. injection; format: in vivo, mouse; set-up: unit not given here; settings: 7 days
# Description: The mice used in the study contain a similar transgene as the HeLa654 cells from Example 4. This mouse model ubiquitously expresses EGFP-654 transgene throughout the body under chicken β-actin promoter. A mutated nucleotide 654 at intron 2 of human β-globin gene is contained in the EGFP-654 sequence which interrupts EGFP-654 coding sequence and prevents proper translation of EGFP protein. […] In this study, 6- to 8-week-old male EGFP-654 mice bred at Charles River Laboratory were used. These mice were group housed with ad libitum access to food and water.
# […] Seven days after the injection, the mice were euthanized for serum and tissue sample collection. Quadriceps, diaphragm, heart were rapidly dissected, snap-frozen in liquid nitrogen and stored at −80° C. until analysis.
# 20-25 mg of mouse tissue was homogenized in RIPA buffer (Thermo Fisher, Cat #89900) with protease inhibitor cocktail (Roche, 04693124001) using a Fast Prep 24-5G instrument (MP Biomedical). Homogenates were centrifuged at 12,000 g for 10 min at 4° C. The resultant supernatant lysates were quantified by Pierce BCA Protein Assay Kit (Thermo Fisher, Cat #23225) and saved for EGFP expression measurement. Specifically, 80 μg of lysates were aliquoted in each well in a black-wall clear-bottom 96-well microplate (Corning). EGFP fluorescent intensity of each sample was measured in duplicates using a SpectraMAx i3x microplate reader (Molecular devices) by default setting. The average EGFP fluorescent intensity of each sample was then plotted against a standard curve constructed by recombinant EGFP protein (Origen, Cat #TP790050) to quantify EGFP protein level per μg protein lysate (See FIGS. 24D-F).
# [2] = Serum kidney injury markers in EGFP-654 mice; format: in vivo, mouse; settings: after seven days
# Procedure: After 3-days of acclimation, mice were randomized into groups to receive a single i.v. tail vein injection of either saline or PMO-P7 at the indicated doses; 5, 10 and 30 mg/kg. Seven days after the injection, the mice were euthanized for serum and tissue sample collection. Quadriceps, diaphragm, heart were rapidly dissected, snap-frozen in liquid nitrogen and stored at −80° C. until analysis.
# Serum from all groups were collected 7-days post-injection and tested for kidney injury markers using a Vet Axcel Clinical Chemistry System (Alfa Wassermann Diagnostic Technologies, LLC). Specifically, serum BUN, creatinine, and cystatin C levels were measured using ACE® Creatinine Reagent (Alfa Wassermann, Cat #SA1012), ACER Blood Urea Nitrogen Reagent (Alfa Wassermann, Cat #SA2024) and Diazyme Cystatin C immunoassay (Diazyme Laboratories, Cat #DX133C—K), […], per manufacturer's recommendation (See, FIGS. 24A-C).
smiles,measurement,setting,value
Cc1cn([C@H]2CN(P(=O)(OC[C@@H]3CN(P(=O)(OC[C@@H]4CN(P(=O)(OC[C@@H]5CN(P(=O)(OC[C@@H]6CN(P(=O)(OC[C@@H]7CN(P(=O)(OC[C@@H]8CN(P(=O)(OC[C@@H]9CN(P(=O)(OC[C@@H]%10CN(C(=O)CCCCC(=O)N%11Cc%12ccccc%12-c%12nnn(CCCCC(=O)N[C@@H](CCCCN)C(=O)N[C@@H](CCCCN)C(=O)N[C@@H](CCCCN)C(=O)N[C@@H](CCCCN)C(=O)N[C@@H](CCCCN)C(=O)N[C@@H](CCC(N)=O)C(=O)NCCC(=O)N[C@@H](CCCCN)C(=O)N[C@@H](CCCCN)C(=O)N[C@@H](CCCCN)C(=O)N[C@@H](Cc%13c[nH]cn%13)C(=O)N[C@@H](CCCNC(=N)N)C(=O)N[C@@H](Cc%13c[nH]c%14ccccc%13%14)C(=O)N%13CCC[C@H]%13C(=O)N[C@@H](CCCCN)C(=O)NCCCCCC(=O)NCCCCCC(=O)N[C@@H](CS)C(N)=O)c%12-c%12ccccc%12%11)C[C@H](n%11cnc%12c(=O)[nH]c(N)nc%12%11)O%10)N(C)C)C[C@H](n%10cnc%11c(N)ncnc%11%10)O9)N(C)C)C[C@H](n9ccc(N)nc9=O)O8)N(C)C)C[C@H](n8ccc(N)nc8=O)O7)N(C)C)C[C@H](n7ccc(N)nc7=O)O6)N(C)C)C[C@H](n6cnc7c(N)ncnc76)O5)N(C)C)C[C@H](n5cnc6c(N)ncnc65)O4)N(C)C)C[C@H](n4cc(C)c(=O)[nH]c4=O)O3)N(C)C)C[C@@H](COP(=O)(N(C)C)N3C[C@@H](COP(=O)(N(C)C)N4C[C@@H](COP(=O)(N(C)C)N5C[C@@H](COP(=O)(N(C)C)N6C[C@@H](COP(=O)(N(C)C)N7C[C@@H](COP(=O)(N(C)C)N8C[C@@H](COP(=O)(N(C)C)N9C[C@@H](COP(=O)(N(C)C)N%10C[C@@H](COP(=O)(N(C)C)N%11C[C@@H](COP(=O)(N(C)C)N%12CCN(C(=O)OCCOCCOCCO)CC%12)O[C@@H](n%12cnc%13c(=O)[nH]c(N)nc%13%12)C%11)O[C@@H](n%11ccc(N)nc%11=O)C%10)O[C@@H](n%10cc(C)c(=O)[nH]c%10=O)C9)O[C@@H](n9cnc%10c(N)ncnc%109)C8)O[C@@H](n8cc(C)c(=O)[nH]c8=O)C7)O[C@@H](n7cc(C)c(=O)[nH]c7=O)C6)O[C@@H](n6cnc7c(N)ncnc76)C5)O[C@@H](n5ccc(N)nc5=O)C4)O[C@@H](n4ccc(N)nc4=O)C3)O2)c(=O)[nH]c1=O (some centres unmarked) [P7],fold increase in activity with respect to unconjugated PMO (eGFP assay),HeLa 654 cells; 5 μM,14 fold
same,"PMO delivery / activity, result in words","HeLa 654 cells; 5 μM, 22 h",superior activity
same,fold increase at maximal effective concentration with respect to unconjugated PMO,HeLa 654 cells; dose-response between 0.1 and 100 μM,45 fold
same,FOLD OVER PMO,"HeLa 654 cells; eGFP fluorescence of PMO-peptide conjugate relative to unconjugated PMO, 5 μM, 22 h",17.7
same,endotoxin,[1],0.0471 EU/mg
same,GFP protein in the Diaphragm,EGFP-654 mice; 30 mg/kg,1100
same,GFP protein in the Heart,EGFP-654 mice; 30 mg/kg,2000
same,GFP protein in the Quadriceps,EGFP-654 mice; 30 mg/kg,1300
same,GFP protein in the Diaphragm,EGFP-654 mice; 60 mg/kg,2500
same,GFP protein in the Heart,EGFP-654 mice; 60 mg/kg,2200
same,GFP protein in the Quadriceps,EGFP-654 mice; 60 mg/kg,4000
same,BUN (blood urea nitrogen) levels,[2],no significant changes
same,creatinine levels,[2],no significant changes
same,cystatin C levels,[2],no significant changes
